Data taken from patent publication US12116371B2, “Substituted pyridines as irreversible inhibitors of menin-MLL interaction” (BIOMEA FUSION, INC., priority 2018, dated 2024).
Like-named read-outs stand apart in the source and are kept apart here.

What was measured:
Experiment in all cases: Long-term proliferation (LTP) assay, CellTiterGlo (Example 103)
HL-60 cells = type: cell-based; details: for IC50: Homo sapiens
Description: (§1) The day of the experiment (TO) all the cell line suspensions were counted by Cell Viability Analyser, Vi-CELL and properly diluted with fresh medium to obtain the cell density reported in the Test System paragraph.
(§2) Cells were tested after 4 passages after thawing.
(§3) 200 μL/well and 150 μL/well of cell suspension were added into the 0.4 µL/well and 0.3 μL/well compound plates, respectively. • Cell plate containing 200 μL/well suspension was incubated at 37° C. in a humidified incubator with 5% CO2. • From each well of the 150 µL/well cell assay plate, 100 μL were harvested and transferred into a 96-well Optiplate (Perkin Elmer, Cat. n. 6005290) and cell viability was measured as described in 4.3 paragraphs (TO). • After four days in culture (T4) 150 μL/well of fresh medium were added into a new […] copy compound plate. • From each well of the 200 μL/well cell assay plate: • 100 μL were sampled for the cell viability measurement as described in 4.3 paragraphs (T4). • 50 μL were harvested and added to the 150 μL/well compound plate prepared as described in the first point to dilute 1:4 the cell suspension. • The cell assay plate diluted and containing 200 µL/well suspension were incubated at 37° C. in a humidified incubator with 5% CO2.
(§4) At T7-T11-T14 it was proceeded as described in T4, with the exception that no further cell dilution was carried out at T14.
(§5) Plates containing the samples to be tested were equilibrated at room temperature for approximately 30 min and then 30 μL/well of the Promega CellTiterGlo® reagent were added. Contents will be mixed for 5 min on an orbital shaker to induce cell lysis and then incubated at room temperature for an additional 10 min to stabilize the luminescent signal.
(§6) Luminescence was read by using VictorV (Perkin Elmer) multilabel plate reader using the standard protocol for luminescence in 96 well plate.
(§7) Data were expressed as % of inhibition compared to the 0.2% DMSO negative control, and was calculated as follows: % inhibition=100−[(RLU sample)×100/(RLU average controls*)] • *cells containing 0.2% DMSO
(§8) CRCs were analysed by GraphPad and IC50 values were calculated by non-linear regression using 4 parameter-logistic equation. IC50 (M) values were reported in the final data table.

RS4-11 (MLL-AF4) cells = type: cell-based; details: for IC50: Homo sapiens, RS4-11 (MLL-AF4), LTP assay
Description: as §1, §2, §3, §4, §5, §6, §7, §8

MV4-11 (MLL-AF4) cells = type: cell-based, human; details: for IC50: Homo sapiens, MV4-11 (MLL-AF4), LTP assay
Description: as §1, §2, §3, §4, §5, §6, §7, §8

MOLM-13 (MLL-AF9) cells = type: cell-based, human; details: for IC50: Homo sapiens, MOLM-13 (MLL-AF9), LTP assay
Description: as §1, §2, §3, §4, §5, §6, §7, §8

[1] = 96 h, Day 4, read-out: Day 4 IC50
[2] = 168 h, Day 7, read-out: Day 7 IC50
[3] = 264 h, Day 11, read-out: Day 11 IC50
[4] = 336 h, Day 14, read-out: Day 14 IC50

## C=CC(=O)NC1CCCN(Cc2ccnc(C(=O)Nc3ccc(-c4cc5c(N6CCOCC6)ncnc5[nH]4)cc3)c2)C1 (stereo not shown) [Compound 10]
HL-60 cells; 96 h, Day 4, LTP assay, read-out: Day 4 IC50
  IC50: 430 nM
HL-60 cells; 168 h, Day 7, LTP assay, read-out: Day 7 IC50
  IC50: 260 nM
HL-60 cells; 264 h, Day 11, LTP assay, read-out: Day 11 IC50
  IC50: 290 nM
HL-60 cells; 336 h, Day 14, LTP assay, read-out: Day 14 IC50
  IC50: 270 nM
HL-60 cells; T4, increasing concentrations
  effect on cell viability at T4: fully inhibited
RS4-11 (MLL-AF4) cells; [1]
  IC50: 500 nM
RS4-11 (MLL-AF4) cells; [2]
  IC50: 470 nM
RS4-11 (MLL-AF4) cells; [3]
  IC50: > 5000 nM
RS4-11 (MLL-AF4) cells; RS4;11, T4, increasing concentrations
  effect on cell viability at T4: fully inhibited
MV4-11 (MLL-AF4) cells; [1]
  IC50: 460 nM
MV4-11 (MLL-AF4) cells; [2]
  IC50: 290 nM
MV4-11 (MLL-AF4) cells; [3]
  IC50: 220 nM
MV4-11 (MLL-AF4) cells; [4]
  IC50: 200 nM
MV4-11 (MLL-AF4) cells; MV4-11, T4, increasing concentrations
  effect on cell viability at T4: fully inhibited
MOLM-13 (MLL-AF9) cells; [1]
  IC50: 260 nM
MOLM-13 (MLL-AF9) cells; [2]
  IC50: 280 nM
MOLM-13 (MLL-AF9) cells; [3]
  IC50: 240 nM
MOLM-13 (MLL-AF9) cells; [4]
  IC50: 230 nM
MOLM-13 (MLL-AF9) cells; MOLM-13, T4, increasing concentrations
  effect on cell viability at T4: fully inhibited
